Results from US20200255492A1, “LEPTIN PEPTIDES AND THEIR USE FOR TREATING NEUROLOGICAL DISORDERS” (UNIVERSITY OF DUNDEE, priority 2017, published 2020).

Assays:
[1] = tested on: tau in hippocampal neurons; assay: Immunocytochemistry of endogenous tau and tau/PSD-95 co-localization; format: cell-based, Sprague-Dawley rats; conditions: for % co-localization of tau and PSD-95 in Aβ1-42-treated neurons / relative tau intensity in Aβ1-42-treated neurons: Aβ1-42 1 μM plus leptin/fragment 10 nM or SB216763 100 nM
Description: Hippocampal cultures were prepared as previously (Moult et al, 2010). Neonatal Sprague-Dawley rats (1-3 d old) were […] killed by cervical dislocation in accordance with the UK Animals (Scientific Procedures Act) 1986 legislation. Hippocampi were removed, and after washing in HEPES-buffered saline comprising (mM) 135 NaCl; 5 KCl; 1 CaCl2; 1 MgCl2; 10 HEPES; and 25 D-glucose at […], were treated with papain (1.5 mg ml21; Sigma-Aldrich) for 20 min at 37° C. Dissociated cells were plated onto sterile dishes (35 mm diameter; Greiner Bio-One, Kremsmun-ster, Austria) treated with poly-D-lysine (20 μg ml^−1; 1-2 h). Cultures were maintained in serum replacement medium (SR2; Sigma-Aldrich) in a humidified atmosphere of 5% CO2 and […] at 37° C. for up to 2 wk.
Immunocytochemistry was conducted on primary hippocampal cultures (7-14 DIV). Prior to labelling with antibodies, neurons were washed with HBS containing glycine (0.01 mM) and incubated with agents for 1 h at room temperature. Cultures were fixed with 4% paraformaldehyde for 5 min, then permeabilized with 0.1% Triton X-100 for 5 min. To label endogenous tau, neurons were incubated with a rabbit anti-tau (Ab-217; Genscript) primary antibody (1:200 dilution) at room temperature for 30 min, followed by incubation with an Alexa Fluor555 donkey anti-rabbit (1:250, Invitrogen) secondary antibody for an additional 30 min duration. To assess the % co-localisation of tau at synapses, neurons were dual labelled with an antibody against the synaptic marker, PSD-95 (mouse anti-PSD-95; 1:500, Thermo Fisher) followed by application of an Alexa Fluor488 goat anti-mouse secondary antibody (1:500, Invitrogen).
A Zeiss LSM510 confocal microscope was used for image acquisition and analysis. Images were obtained using a 10-s scan speed in single tracking mode or multi-tracking mode for dual labelling experiments. The intensity of immunostaining was measured off-line using Lasersharp software (Zeiss Lasersharp), whereby analysis lines of 50 μm length were drawn along randomly selected dendritic regions. All data were obtained from at least three different cultures from different animals. Imaging conditions including illumination intensity and photomultiplier gains were kept constant between treatments for each experiment. In addition, data were normalised relative to the mean fluorescence intensity obtained from control neurons. For synaptic co-localisation experiments, tau and PSD-95 positive immunostaining were compared. The number of tau-positive sites that co-localized with PSD-95 positive sites were counted and expressed as a percentage of total positive sites (peaks of intensity).

[2] = tested on: phosphorylated tau (p-tau); assay: ELISA of phosphorylated tau relative to α-tubulin; format: cell-based, human; conditions: 10 nM; n=5
Description: The human neuroblastoma cell line, SH-SY5Y (ECACC, UK) was maintained in Dulbecco's Modified Eagle Medium supplemented with glucose ([…]) and 10% (v/v) cosmic calf serum (Fisher Scientific, UK) at 37° C. in a humidified atmosphere of 5% CO2, 95% air and allowed to reach 70-80% confluence before seeding. Cells (passage 10-18) were plated at 10 000 cells per well in 96 well tissue culture plates (Nunc, VWR, UK) and at a density of 2×10^5 cells in 35 mm dishes for protein extraction. To induce differentiation, cells were cultured in DMEM supplemented with glucose ([…]), 1% (v/v) cosmic calf serum and 10 μM retinoic acid for 5 days. Thereafter they were incubated in DMEM supplemented with glucose ([…]), serum replacement 2 (2%; Sigma, UK) and 18 μM 5-fluorodeoxyuridine to inhibit proliferation of undifferentiated cells. The 50% of the medium was changed every 2-3 days and pharmacological treatment was carried out 7 days after switching to this medium. Reagents used were (from Sigma UK unless stated) 0.1-10 nM human leptin and leptin (116-130); 0.1-10 nM leptin (22-56; Bachem; Switzerland); 10 nM leptin (116-121) leptin (117-122), leptin (124-129) or leptin (125-130; all Severn Biotech, UK); 5 μM copper chloride; […], 5 μM WP1066 or 50 nM wortmannin. All treatments were added to the culture at the same time and survival assays were carried out after 96 h treatment. Protein samples for signaling ELISA were extracted 3 h after exposure to the relevant reagents and for biomarker expression after 72 hours.
Protein from cultures was extracted into 500 μl Tris-buffered saline containing protease inhibitor cocktail, and a Bradford assay used to determine protein concentration. Samples were diluted to give equal loading onto ELISA plates. Commercially available ELISA kits were used in accordance with the manufacturer's instructions to determine the ratio of pan-STAT3 to phospho-STAT3 (Sigma, UK) and pan-Akt to phospho-Akt (Sigma, UK) and the levels of alpha-tubulin and phosphorylated tau (Sigma, UK). Each protein sample was run in duplicate using samples derived from at least 5 biological repeats.
Hyper-phosphorylation of tau is the underpinning mechanism of the development of neurofibrillary tangles—one of the key pathological feature of AD. Human SH-SY5Y neuronal cells were exposed to Aβ1-42 alone or in combination with 10 nM leptin, leptin (116-130), leptin (116-121), leptin (117-122), leptin (124-129) or leptin (125-130). Protein was extracted for ELISA assay and the ratio of p-tau to the house-keeping protein α-tubulin determined (FIG. 11C). […] Thus for Aβ1-42-treated cells, 10 nM leptin and 10 nM leptin (116-130) reduced p-tau expression by 56.2±8.0% and 58.9+4.6% respectively compared with Aβ1-42 alone (n=5; P<0.001; FIG. 11C); an effect that was mirrored by 10 nM leptin (116-121) and leptin (117-122); 58.1±4.0% and 45.48±6.1% (n=5; P<0.001 and P<0.01 respectively; FIG. 11C), but not by 10 nM leptin (124-129) or leptin (125-130)(n=5; P>0.5; FIG. 11C).

[3] = tested on: GluA1 surface expression in cultured hippocampal neurons; assay: Surface labelling of AMPA receptor subunit GluA1 (immunocytochemistry); format: cell-based, Sprague Dawley rats; conditions: for GluA1 surface expression, hexamer study: 10 nM, 15 min; for GluA1 surface expression, agent alone (PTEN study): bpV 50 nM, 30 min

Substance	% co-localization of tau and PSD-95, Aβ peptide alone ([1]; 1 μM)	relative tau intensity at dendrites, Aβ peptide alone ([1]; 1 μM)	reduction of p-tau expression compared with Aβ1-42 alone [2] [%]	GluA1 surface expression, hexamer study [3]	% co-localization of tau and PSD-95 in Aβ1-42-treated neurons [1]	relative tau intensity in Aβ1-42-treated neurons [1]	GluA1 surface expression, agent alone (PTEN study) [3]
Aβ1-42: amyloid beta 1-42, toxin used in the AD models [reference compound]	increases % co-localization between endogenous tau and PSD-95	increased endogenous tau expression compared to control	–	–	–	–	–
CSLPQT (listed as Mus musculus) [leptin (117-122)]	–	–	45.48±6.1	167±10 % of control	–	–	–
SCSLPQ (listed as Mus musculus) [leptin (116-121)]	–	–	58.1±4.0	146±9 % of control	–	–	–
SCSLPQTSGLQKPES (listed as Mus musculus) [leptin (116-130)]	–	–	58.9 ± 4.6	increased GluA1 surface labelling	prevented Aβ1-42-driven movement of tau to synapses	reducing dendritic tau levels	167±10 % of control
leptin: the metabolic hormone leptin, whole (full length) leptin molecule; human leptin from Sigma in SH-SY5Y work	–	–	56.2±8.0	–	prevented the Aβ1.42-driven movement of tau to synapses	reducing the dendritic levels of tau to near control levels	140±7.2 % of control
